Laboratory results reported in patent US20070060550A1, “Methods of determining compounds useful in the treatment of bipolar disorder and methods of treating such disorders” (priority 2005, published 2007).

Assays:
prolyl oligopeptidase = target: T1, prolyl oligopeptidase (Homo sapiens, UniProt P48147); test: prolyl oligopeptidase fluorogenic enzyme assay (Z-Gly-Pro-aminomethyl coumarin); format: biochemical; details: for effect on prolyl oligopeptidase proteolytic activity: FIG. 9
T1 construct: poly-histidine; made in house; host or cells: E. coli
T1 sequence (P48147 1-710): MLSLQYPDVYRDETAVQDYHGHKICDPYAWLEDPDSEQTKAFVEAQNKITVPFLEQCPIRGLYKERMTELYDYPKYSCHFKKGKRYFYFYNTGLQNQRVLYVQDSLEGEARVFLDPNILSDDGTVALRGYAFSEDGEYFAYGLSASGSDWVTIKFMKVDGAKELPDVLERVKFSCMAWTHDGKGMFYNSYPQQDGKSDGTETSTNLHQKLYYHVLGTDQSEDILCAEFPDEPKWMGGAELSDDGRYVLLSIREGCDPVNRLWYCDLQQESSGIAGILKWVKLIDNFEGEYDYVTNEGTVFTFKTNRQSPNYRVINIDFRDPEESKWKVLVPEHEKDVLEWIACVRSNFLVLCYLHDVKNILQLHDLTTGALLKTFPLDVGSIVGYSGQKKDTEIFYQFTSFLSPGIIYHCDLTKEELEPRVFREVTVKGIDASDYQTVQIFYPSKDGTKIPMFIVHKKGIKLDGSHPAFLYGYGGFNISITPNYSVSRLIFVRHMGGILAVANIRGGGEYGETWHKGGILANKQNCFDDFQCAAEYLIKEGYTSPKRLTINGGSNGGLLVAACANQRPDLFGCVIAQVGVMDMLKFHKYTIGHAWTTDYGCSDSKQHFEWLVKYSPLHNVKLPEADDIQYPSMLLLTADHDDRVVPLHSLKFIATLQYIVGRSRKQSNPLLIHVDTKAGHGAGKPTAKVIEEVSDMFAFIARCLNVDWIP
Text: For inhibitors of the enzymatic activity on the enzyme prolyl oligopeptidase, the relevant references for several assays can be found in Cheng et al., MCN 2005. Common assays use a peptide-based substrate which, when cleaved from a prorlyl bond, releases a fluorogenic signal that can be quantitated by spectrocopy.
Conveniently, the effect of the candidate compounds that inhibit enzyme activity can be assessed using a labeled substrate that is cleaved or otherwise modified by prolyl oligopeptidase to produce a detachable change such as release of a label. Thus, it is possible to screen candidate inhibitors by measuring the change in the signal from the label caused by the action of prolyl oligopeptidase in the presence and absence of a candidate inhibitor compound. A preferred substrate may be one in which a fluorescent label is employed, such as Z-Gly-Pro-aminomethyl coumarin.
Conveniently, prolyl oligopeptidase enzyme assays can be carried out using a standard fluorogenic assay with the synthetic substrate Z-Gly-Pro-aminomethyl coumarin obtained from Bachem, Switzerland. Recominant prolyl oligopeptidase was produced in E. coli transfected with cDNA encoding the human form of prolyl oligopeptidase cloned into a bacterial expression vector containing either an N-or a C-terminal poly-histidine tag in order to purify the expressed protein. cDNA encoding human […] can be obtained from the MRC's HGMP Resource Center, Hinxton Hall Cambridge, UK (Clone Image No. 3614248).

[1] = system: sensory neuron growth cones; details: Williams et al., 2002; cited from earlier work
cortical neurons = test: 3H-CDP-DAG accumulation assay of PIns recycling in carbachol-stimulated neurons; format: cell-based
Text: PIns recycling that is limited by the supply of inositol can be assessed by loading cells with ^3H-cytidine, stimulating the cells with carbachol in the presence or absence of lithium, precipitating protein with trichloracetic acid, and then determining how much ^3H accumulates as ^3H-CDP-DAG in the lipid membrane compartment, which can be extracted with chloroform. […] Compounds specifically for this purpose may be designed by a number of computer programs suitable for this purpose.
A suitable screen therefore will determine compounds that can reverse the effect of lithium as measured by the accumulation of CDP-DAG in carbachol-stimulated neurons. Another means of screening for drugs that reverse the effect of lithium on PIns recycling is to screen for drugs that alter the supply of intracellular inositol in neurons by labelling them with titriated inositol and analysing the patterns of cytosolic inositol phosphates and membrane phoshoinositides: the novelty of this approach is to use cortical neurons rather than non-neural cells or neural cell lines. […] Additional known tricyclics such as protriptyline that could also be tested. […] The same assays can be used to test for other compounds that stimulate PIns cycling including other inhibitors of prolyl oligopeptidase activity.
The accumulation of tritiated CDP-DAG in the membrane fraction after loading cells with ^3H-cytidine or the incorporation of ^32P orthophosphate into membrane phospholipids can be used to assess changes in synthetic patterns in the presence or absence of compounds needing to be tested.

[2] = system: sensory neuron growth cones; test: growth cone collapse / morphology in cultured neurons; format: cell-based
Text: I used the growth cones as a model system for assessing changes in intracellular signalling events in response to drugs: The growth cones have some properties in common with presynaptic nerve terminals in the brain. I argued that, if the signalling changes we see in the growth cones of cultured neurons also occur in mature brain synapses in mood-related circuits, then these changes in neuronal signalling in response to the drugs would very likely affect synaptic transmission and thus also affect mood.
Another method of screening for suitable drugs for the prophylactic treatment of bipolar disorder is to look for compounds that have dual effects on the morphology of growth cones. Suitable compounds are those that can inhibit the collapse of growth cones in a way that is reversed by increasing extracellular inositol to 3 mM as well as reverse the effects of 20 μM carbamazepine or 3 mM valproic acid on the collapse of growth cones. Lamotrigine has such properties.

HMIT = details: compared with SMIT; cited from earlier work
[3] = in vivo; cited from earlier work

## NC(=O)N1c2ccccc2C=Cc2ccccc21 [carbamazepine]
Prolyl oligopeptidase
  effect on prolyl oligopeptidase proteolytic activity: Only valproic acid inhibited the enzyme
[1]
  effect on collapse of sensory neuron growth cones and growth cone area: inhibit the collapse of sensory neuron growth cones and increase growth cone area

## CNCCCN1c2ccccc2CCc2ccccc21 [desipramine]
Prolyl oligopeptidase
  effect on prolyl oligopeptidase proteolytic activity: Only valproic acid inhibited the enzyme
Cortical neurons
  concentrations at which the antidepressants act on the PIns cycle: micromolar

## CNCCC(Oc1ccc(C(F)(F)F)cc1)c1ccccc1 (stereo not drawn) [fluoxetine]
Prolyl oligopeptidase
  effect on prolyl oligopeptidase proteolytic activity: Only valproic acid inhibited the enzyme
Cortical neurons
  concentrations at which the antidepressants act on the PIns cycle: micromolar
Cortical neurons; cycle first perturbed with lithium, valproic acid or carbamazepine
  reversal of the inhibitory effects of mood stabilizers on the PIns cycle: can reverse the inhibitory effects of lithium, valproic acid and carbamazepine on the PIns cycle

## Nc1nnc(-c2cccc(Cl)c2Cl)c(N)n1 [lamotrigine]
[2]; 20 μM carbamazepine or 3 mM valproic acid
  reversal of the action of carbamazepine or valproic acid on the growth cones: can reverse the action of either carbamazepine or valproic acid on the growth cones
[2]; compound alone
  effect on collapse of growth cones: inhibits the collapse of growth cones
[2]; increased extracellular inositol (3 mM)
  reversal of the growth cone effect by inositol: reversed by increasing the extracellular concentration of inositol

## O=C(CCc1ccc(O)cc1)c1c(O)cc(O)cc1O [phloretin]
HMIT
  strength of HMIT inhibition: weak inhibitors of HMIT

## CN1c2ccccc2C(NCCCCCCC(=O)O)c2ccc(Cl)cc2S1(=O)=O (stereo not drawn) [tianeptine]
Cortical neurons; abolition of lithium-induced accumulation, carbachol-stimulated neurons
  effective doses in the 3H-CDP-DAG assay: 10^−6-10^−5 M
Cortical neurons; carbachol-stimulated neurons, in presence of lithium
  effect on lithium-induced accumulation of 3H-CDP-DAG: abolished the lithium-induced accumulation
Cortical neurons; compound alone
  effect alone in the 3H-CDP-DAG assay: no effect alone

## CCCC(CCC)C(=O)O [valproic acid]
Prolyl oligopeptidase
  effect on prolyl oligopeptidase proteolytic activity: inhibited the enzyme
Prolyl oligopeptidase; read-out: Ki for direct inhibition of PO
  Ki: ~1000 µM
[1]
  effect on collapse of sensory neuron growth cones and growth cone area: inhibit the collapse of sensory neuron growth cones and increase growth cone area
[3]
  therapeutic blood levels: 0.3 to 0.7 mM
